In BindingDB's records for doi:10.1021/jm100978n (Pfizer, 2011):

Assay: Antagonist activity at CCR5 receptor expressed in HeLa-P4 cells co-expressing CD4 assessed as inhibition of infusion to HIV gp120 expressed in CHO-tat10 cells after 20 hrs by cell-cell fusion assay
With `Cc1nc(C(C)C)n([C@H]2C[C@H]3CC[C@@H](C2)N3CC[C@H](NC(=O)C2CCC(F)(F)CC2)c2ccccc2)n1` [endo-4,4-difluoro-N-((S)-3-(3-(5-isopropyl-3-methyl-1H-1,2,4-triazol-1-yl)-8-azabicyclo[3.2.1]octan-8-yl)-1-phenylpropyl)cyclohexanecarboxamide] the IC50 was 1.4 nM. With `CC(=O)N[C@@H](CCN1[C@@H]2CC[C@H]1C[C@@H](n1c(C)nc3c1CN(C)CC3)C2)c1ccccc1` [endo-N-((S)-3-(3-(2,5-dimethyl-4,5,6,7-tetrahydro-3H-imidazo[4,5-c]pyridin-3-yl)-8-azabicyclo[3.2.1]octan-8-yl)-1-phenylpropyl)acetamide] the IC50 was 5 nM. With `CC(=O)N[C@@H](CCN1[C@@H]2CC[C@H]1C[C@@H](n1c(C)nc3ccccc31)C2)c1ccccc1` [endo-N-((S)-3-(3-(2-methyl-1H-benzo[d]imidazol-1-yl)-8-azabicyclo[3.2.1]octan-8-yl)-1-phenylpropyl)acetamide] the IC50 was 0.5 nM. Work on `CC(=O)N[C@@H](CCN1[C@@H]2CC[C@H]1C[C@@H](n1c(C)nc3c1CNCC3)C2)c1ccccc1` [endo-N-((S)-3-(3-(2-methyl-4,5,6,7-tetrahydro-3H-imidazo[4,5-c]pyridin-3-yl)-8-azabicyclo[3.2.1]octan-8-yl)-1-phenylpropyl)acetamide] yielded an IC50 of 9 nM. `CC(=O)N[C@@H](CCN1[C@@H]2CC[C@H]1C[C@@H](n1c(C)nc3c1CN(S(C)(=O)=O)CC3)C2)c1ccccc1` [endo-N-((S)-3-(3-(2-methyl-5-(methylsulfonyl)-4,5,6,7-tetrahydro-3H-imidazo[4,5-c]pyridin-3-yl)-8-azabicyclo[3.2.1]octan-8-yl)-1-phenylpropyl)acetamide] showed an IC50 of 2 nM. `CCC(=O)N1CCc2nc(C)n([C@H]3C[C@H]4CC[C@@H](C3)N4CC[C@H](NC(C)=O)c3ccccc3)c2C1` [endo-N-((S)-3-(3-(2-methyl-5-propionyl-4,5,6,7-tetrahydro-3H-imidazo[4,5-c]pyridin-3-yl)-8-azabicyclo[3.2.1]octan-8-yl)-1-phenylpropyl)acetamide] gave an IC50 of 0.4 nM. `CC(=O)N[C@@H](CCN1[C@@H]2CC[C@H]1C[C@@H](n1c(C)nc3c1CN(C(C)=O)CC3)C2)c1ccccc1` [endo-N-((S)-3-(3-(5-acetyl-2-methyl-4,5,6,7-tetrahydro-3H-imidazo[4,5-c]pyridin-3-yl)-8-azabicyclo[3.2.1]octan-8-yl)-1-phenylpropyl)acetamide] showed an IC50 of 0.4 nM. In the case of `CC(=O)N[C@@H](CCN1[C@@H]2CC[C@H]1C[C@@H](n1c(C)nc3c1CN(Cc1ccccc1)CC3)C2)c1ccccc1` [endo-N-((S)-3-(3-(5-benzyl-2-methyl-4,5,6,7-tetrahydro-3H-imidazo[4,5-c]pyridin-3-yl)-8-azabicyclo[3.2.1]octan-8-yl)-1-phenylpropyl)acetamide], the IC50 is reported as 29 nM. For `CC(=O)N[C@@H](CCN1[C@@H]2CC[C@H]1C[C@@H](n1c(C)nc3c1CN(C(=O)C(C)C)CC3)C2)c1ccccc1` [endo-N-((S)-3-(3-(5-isobutyryl-2-methyl-4,5,6,7-tetrahydro-3H-imidazo[4,5-c]pyridin-3-yl)-8-azabicyclo[3.2.1]octan-8-yl)-1-phenylpropyl)acetamide], the IC50 was 0.4 nM. With `CC(=O)N[C@@H](CCN1[C@@H]2CC[C@H]1C[C@@H](n1c(C)nc3c1CN(C(C)C)CC3)C2)c1ccccc1` [endo-N-((S)-3-(3-(5-isopropyl-2-methyl-4,5,6,7-tetrahydro-3H-imidazo[4,5-c]pyridin-3-yl)-8-azabicyclo[3.2.1]octan-8-yl)-1-phenylpropyl)acetamide] the IC50 was 3 nM. With `COC(=O)N[C@@H](CCN1[C@@H]2CC[C@H]1C[C@@H](n1c(C)nc3c1CN(C(=O)OC)CC3)C2)c1cccc(F)c1` [endo-methyl 3-(8-((S)-3-(3-fluorophenyl)-3-(methoxycarbonylamino)propyl)-8-azabicyclo[3.2.1]octan-3-yl)-2-methyl-6,7-dihydro-3H-imidazo[4,5-c]pyridine-5(4H)-carboxylate] the IC50 was 0.2 nM. Work on `COC(=O)N1CCc2nc(C)n([C@H]3C[C@H]4CC[C@@H](C3)N4CC[C@H](NC(C)=O)c3cccc(F)c3)c2C1` [endo-methyl 3-(8-((S)-3-acetamido-3-(3-fluorophenyl)propyl)-8-azabicyclo[3.2.1]octan-3-yl)-2-methyl-6,7-dihydro-3H-imidazo[4,5-c]pyridine-5(4H)-carboxylate] yielded an IC50 of 0.1 nM. `COC(=O)N1CCc2nc(C)n([C@H]3C[C@H]4CC[C@@H](C3)N4CC[C@H](NC(C)=O)c3ccccc3)c2C1` [endo-methyl 3-(8-((S)-3-acetamido-3-phenylpropyl)-8-azabicyclo[3.2.1]octan-3-yl)-2-methyl-6,7-dihydro-3H-imidazo[4,5-c]pyridine-5(4H)-carboxylate] showed an IC50 of 0.3 nM. Compound `COC(=O)N[C@@H](CCN1[C@@H]2CC[C@H]1C[C@@H](n1c(C)nc3c1CN(C(C)=O)CC3)C2)c1cccc(F)c1` [endo-methyl(S)-3-(3-(5-acetyl-2-methyl-4,5,6,7-tetrahydro-3H-imidazo[4,5-c]pyridin-3-yl)-8-azabicyclo[3.2.1]octan-8-yl)-1-(3-fluorophenyl)propylcarbamate] has an IC50 of 0.2 nM. With `COC(=O)N[C@@H](CCN1[C@@H]2CC[C@H]1C[C@@H](n1c(C)nc3c1CN(C(C)=O)CC3)C2)c1ccccc1` [endo-methyl(S)-3-(3-(5-acetyl-2-methyl-4,5,6,7-tetrahydro-3H-imidazo[4,5-c]pyridin-3-yl)-8-azabicyclo[3.2.1]octan-8-yl)-1-phenylpropylcarbamate] the IC50 was 0.6 nM.
